CC#C[C@]1(O)CC[C@H]2[C@@H]3CCC4=CC(=O)CCC4=C3[C@@H](c3ccc(N(C)C)cc3)C[C@@]21C
solubility (mole fraction) (in THF, 273.15 K): 5.16e-05 | solubility (mole fraction) (in THF, 278.15 K): 6e-05 | solubility (mole fraction) (in THF, 283.15 K): 6.95e-05 | solubility (mole fraction) (in THF, 288.15 K): 8.05e-05 | solubility (mole fraction) (in THF, 293.15 K): 9.3e-05 | solubility (mole fraction) (in THF, 298.15 K): 0.000107 | solubility (mole fraction) (in THF, 303.15 K): 0.000123 | solubility (mole fraction) (in THF, 308.15 K): 0.000142 | solubility (mole fraction) (in THF, 313.15 K): 0.000163 | solubility (mole fraction) (in THF, 318.15 K): 0.000188 | solubility (mole fraction) (in acetone, 273.15 K): 0.000149 | solubility (mole fraction) (in acetone, 278.15 K): 0.000184 | solubility (mole fraction) (in acetone, 283.15 K): 0.000228 | solubility (mole fraction) (in acetone, 288.15 K): 0.000281 | solubility (mole fraction) (in acetone, 293.15 K): 0.000345 | solubility (mole fraction) (in acetone, 298.15 K): 0.000422 | solubility (mole fraction) (in acetone, 303.15 K): 0.000516 | solubility (mole fraction) (in acetone, 308.15 K): 0.000628 | solubility (mole fraction) (in acetone, 313.15 K): 0.000762 | solubility (mole fraction) (in acetone, 318.15 K): 0.000922 | solubility (mole fraction) (in ethanol, 273.15 K): 0.000122 | solubility (mole fraction) (in ethanol, 278.15 K): 0.000146 | solubility (mole fraction) (in ethanol, 283.15 K): 0.000174 | solubility (mole fraction) (in ethanol, 288.15 K): 0.000206 | solubility (mole fraction) (in ethanol, 293.15 K): 0.000244 | solubility (mole fraction) (in ethanol, 298.15 K): 0.000289 | solubility (mole fraction) (in ethanol, 303.15 K): 0.000341 | solubility (mole fraction) (in ethanol, 308.15 K): 0.000401 | solubility (mole fraction) (in ethanol, 313.15 K): 0.000472 | solubility (mole fraction) (in ethanol, 318.15 K): 0.000552 | solubility (mole fraction) (in ethyl acetate, 273.15 K): 0.000103 | solubility (mole fraction) (in ethyl acetate, 278.15 K): 0.000125 | solubility (mole fraction) (in ethyl acetate, 283.15 K): 0.000152 | solubility (mole fraction) (in ethyl acetate, 288.15 K): 0.000184 | solubility (mole fraction) (in ethyl acetate, 293.15 K): 0.000223 | solubility (mole fraction) (in ethyl acetate, 298.15 K): 0.00027 | solubility (mole fraction) (in ethyl acetate, 303.15 K): 0.000325 | solubility (mole fraction) (in ethyl acetate, 308.15 K): 0.000392 | solubility (mole fraction) (in ethyl acetate, 313.15 K): 0.000471 | solubility (mole fraction) (in ethyl acetate, 318.15 K): 0.000565 | solubility (mole fraction) (in isopropanol, 273.15 K): 7.13e-05 | solubility (mole fraction) (in isopropanol, 278.15 K): 0.000109 | solubility (mole fraction) (in isopropanol, 283.15 K): 0.000164 | solubility (mole fraction) (in isopropanol, 288.15 K): 0.000244 | solubility (mole fraction) (in isopropanol, 293.15 K): 0.000358 | solubility (mole fraction) (in isopropanol, 298.15 K): 0.000518 | solubility (mole fraction) (in isopropanol, 303.15 K): 0.00074 | solubility (mole fraction) (in isopropanol, 308.15 K): 0.00105 | solubility (mole fraction) (in isopropanol, 313.15 K): 0.00146 | solubility (mole fraction) (in isopropanol, 318.15 K): 0.00202 | solubility (mole fraction) (in methanol, 273.15 K): 0.000445 | solubility (mole fraction) (in methanol, 278.15 K): 0.00058 | solubility (mole fraction) (in methanol, 283.15 K): 0.000756 | solubility (mole fraction) (in methanol, 288.15 K): 0.000982 | solubility (mole fraction) (in methanol, 293.15 K): 0.00128 | solubility (mole fraction) (in methanol, 298.15 K): 0.00164 | solubility (mole fraction) (in methanol, 303.15 K): 0.0021 | solubility (mole fraction) (in methanol, 308.15 K): 0.00266 | solubility (mole fraction) (in methanol, 313.15 K): 0.00333 | solubility (mole fraction) (in methanol, 318.15 K): 0.00414 | solubility (mole fraction) (in n-butanol, 273.15 K): 0.000172 | solubility (mole fraction) (in n-butanol, 278.15 K): 0.000213 | solubility (mole fraction) (in n-butanol, 283.15 K): 0.000264 | solubility (mole fraction) (in n-butanol, 288.15 K): 0.000332 | solubility (mole fraction) (in n-butanol, 293.15 K): 0.000412 | solubility (mole fraction) (in n-butanol, 298.15 K): 0.000502 | solubility (mole fraction) (in n-butanol, 303.15 K): 0.000612 | solubility (mole fraction) (in n-butanol, 308.15 K): 0.000733 | solubility (mole fraction) (in n-butanol, 313.15 K): 0.000875 | solubility (mole fraction) (in n-butanol, 318.15 K): 0.00103 | solubility (mole fraction) (in n-propanol, 273.15 K): 0.000138 | solubility (mole fraction) (in n-propanol, 278.15 K): 0.000163 | solubility (mole fraction) (in n-propanol, 283.15 K): 0.000192 | solubility (mole fraction) (in n-propanol, 288.15 K): 0.000226 | solubility (mole fraction) (in n-propanol, 293.15 K): 0.000266 | solubility (mole fraction) (in n-propanol, 298.15 K): 0.00031 | solubility (mole fraction) (in n-propanol, 303.15 K): 0.000362 | solubility (mole fraction) (in n-propanol, 308.15 K): 0.000428 | solubility (mole fraction) (in n-propanol, 313.15 K): 0.000499 | solubility (mole fraction) (in n-propanol, 318.15 K): 0.000582

Reference: BigSolDB 2.1
